# Measured values reported in PubChem BioAssay (NCI).
#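 Following 48 hours of exposure in 96-well plates, responses at five concentrations were used to interpolate endpoints linearly. TGI is the concentration that stops growth completely.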
# Tests used:
# Test in all cases: NCI-60 cell line screen, 48 h
# [1] = tested on: 786-0 renal
# [2] = tested on: A549 NSCLC
# [3] = tested on: ACHN renal
# [4] = tested on: CAKI-1 renal
# [5] = tested on: CCRF-CEM leukemia
# [6] = tested on: COLO 205 colon
# [7] = tested on: DLD-1 colon
# [8] = tested on: DMS 114 small cell lung
# [9] = tested on: DMS 273 small cell lung
# [10] = tested on: EKVX NSCLC
# [11] = tested on: HCC-2998 colon
# [12] = tested on: HCT-116 colon
# [13] = tested on: HCT-15 colon
# [14] = tested on: HOP-18 NSCLC
# [15] = tested on: HOP-62 NSCLC
# [16] = tested on: HOP-92 NSCLC
# [17] = tested on: HT29 colon
# [18] = tested on: IGROV1 ovarian
# [19] = tested on: K-562 leukemia
# [20] = tested on: KM12 colon
# [21] = tested on: KM20L2 colon
# [22] = tested on: LOX IMVI melanoma
# [23] = tested on: LXFL 529 NSCLC
# [24] = tested on: M14 melanoma
# [25] = tested on: M19-MEL melanoma
# [26] = tested on: MALME-3M melanoma
# [27] = tested on: MOLT-4 leukemia
# [28] = tested on: NCI-H226 lung
# [29] = tested on: NCI-H23 lung
# [30] = tested on: NCI-H460 lung
# [31] = tested on: NCI-H522 lung
# [32] = tested on: OVCAR-3 ovarian
# [33] = tested on: OVCAR-4 ovarian
# [34] = tested on: OVCAR-5 ovarian
# [35] = tested on: OVCAR-8 ovarian
# [36] = tested on: RPMI-8226 leukemia
# [37] = tested on: RXF 393 renal
# [38] = tested on: RXF-631 renal
# [39] = tested on: SF-268 CNS
# [40] = tested on: SF-295 CNS
# [41] = tested on: SF-539 CNS
# [42] = tested on: SK-MEL-2 melanoma
# [43] = tested on: SK-MEL-28 melanoma
# [44] = tested on: SK-MEL-5 melanoma
# [45] = tested on: SK-OV-3 ovarian
# [46] = tested on: SN12C renal
# [47] = tested on: SNB-19 CNS
# [48] = tested on: SNB-75 CNS
# [49] = tested on: SNB-78 CNS
# [50] = tested on: SR leukemia
# [51] = tested on: SW-620 colon
# [52] = tested on: TK-10 renal
# [53] = tested on: U251 CNS
# [54] = tested on: UACC-257 melanoma
# [55] = tested on: UACC-62 melanoma
# [56] = tested on: UO-31 renal
# [57] = tested on: XF 498 CNS
# [58] = tested on: A498 renal
# [59] = tested on: HL-60(TB) leukemia
smiles,measurement,setting,value
Cc1cc2c(ccc3c(C)cc(=O)oc32)o1,TGI,[1],> 100 µM
same,TGI,[2],> 100 µM
same,TGI,[3],> 100 µM
same,TGI,[4],> 100 µM
same,TGI,[5],> 100 µM
same,TGI,[6],> 100 µM
same,TGI,[7],> 100 µM
same,TGI,[8],> 100 µM
same,TGI,[9],> 100 µM
same,TGI,[10],> 100 µM
same,TGI,[11],> 100 µM
same,TGI,[12],> 100 µM
same,TGI,[13],> 100 µM
same,TGI,[14],> 100 µM
same,TGI,[15],> 100 µM
same,TGI,[16],> 100 µM
same,TGI,[17],> 100 µM
same,TGI,[18],> 100 µM
same,TGI,[19],> 100 µM
same,TGI,[20],> 100 µM
same,TGI,[21],> 100 µM
same,TGI,[22],> 100 µM
same,TGI,[23],> 100 µM
same,TGI,[24],> 100 µM
same,TGI,[25],> 100 µM
same,TGI,[26],> 100 µM
same,TGI,[27],> 100 µM
same,TGI,[28],> 100 µM
same,TGI,[29],> 100 µM
same,TGI,[30],> 100 µM
same,TGI,[31],> 100 µM
same,TGI,[32],> 100 µM
same,TGI,[33],> 100 µM
same,TGI,[34],> 100 µM
same,TGI,[35],> 100 µM
same,TGI,[36],> 100 µM
same,TGI,[37],> 100 µM
same,TGI,[38],> 100 µM
same,TGI,[39],> 100 µM
same,TGI,[40],> 100 µM
same,TGI,[41],> 100 µM
same,TGI,[42],> 100 µM
same,TGI,[43],> 100 µM
same,TGI,[44],> 100 µM
same,TGI,[45],> 100 µM
same,TGI,[46],> 100 µM
same,TGI,[47],> 100 µM
same,TGI,[48],> 100 µM
same,TGI,[49],> 100 µM
same,TGI,[50],> 100 µM
same,TGI,[51],> 100 µM
same,TGI,[52],> 100 µM
same,TGI,[53],> 100 µM
same,TGI,[54],> 100 µM
same,TGI,[55],> 100 µM
same,TGI,[56],> 100 µM
same,TGI,[57],> 100 µM
O=C(/N=C/c1c(O)c2ccccc2oc1=O)Nc1ccccc1,TGI,[1],> 100 µM
same,TGI,[58],> 100 µM
same,TGI,[2],> 100 µM
same,TGI,[3],> 100 µM
same,TGI,[4],55.3 µM
same,TGI,[5],> 100 µM
same,TGI,[6],> 100 µM
same,TGI,[7],> 100 µM
same,TGI,[8],> 100 µM
same,TGI,[9],> 100 µM
same,TGI,[10],> 100 µM
same,TGI,[11],> 100 µM
same,TGI,[12],> 100 µM
same,TGI,[13],> 100 µM
same,TGI,[59],> 100 µM
same,TGI,[14],> 100 µM
same,TGI,[16],> 100 µM
same,TGI,[17],> 100 µM
same,TGI,[18],> 100 µM
same,TGI,[19],> 100 µM
same,TGI,[20],> 100 µM
same,TGI,[21],> 100 µM
same,TGI,[22],> 100 µM
same,TGI,[23],> 100 µM
same,TGI,[24],> 100 µM
same,TGI,[25],> 100 µM
same,TGI,[26],94 µM
same,TGI,[27],> 100 µM
same,TGI,[28],> 100 µM
same,TGI,[29],> 100 µM
same,TGI,[30],> 100 µM
same,TGI,[31],> 100 µM
same,TGI,[32],> 100 µM
same,TGI,[33],> 100 µM
same,TGI,[34],> 100 µM
same,TGI,[35],> 100 µM
same,TGI,[36],> 100 µM
same,TGI,[37],91.8 µM
same,TGI,[39],> 100 µM
same,TGI,[40],> 100 µM
same,TGI,[41],> 100 µM
same,TGI,[42],80.4 µM
same,TGI,[43],> 100 µM
same,TGI,[44],> 100 µM
same,TGI,[45],> 100 µM
same,TGI,[46],> 100 µM
same,TGI,[47],> 100 µM
same,TGI,[48],83.5 µM
same,TGI,[49],> 100 µM
same,TGI,[50],> 100 µM
same,TGI,[51],> 100 µM
same,TGI,[52],> 100 µM
same,TGI,[53],> 100 µM
same,TGI,[54],> 100 µM
same,TGI,[55],> 100 µM
same,TGI,[56],> 100 µM
same,TGI,[57],> 100 µM
CN1CCCC2(CCCc3ccccc32)C1 (centres undefined),TGI,[1],> 100 µM
same,TGI,[58],> 100 µM
same,TGI,[2],> 100 µM
same,TGI,[3],> 100 µM
same,TGI,[4],> 100 µM
same,TGI,[5],> 100 µM
same,TGI,[6],> 100 µM
same,TGI,[7],> 100 µM
same,TGI,[8],> 100 µM
same,TGI,[9],> 100 µM
same,TGI,[10],> 100 µM
same,TGI,[11],> 100 µM
same,TGI,[12],> 100 µM
same,TGI,[13],> 100 µM
same,TGI,[59],> 100 µM
same,TGI,[15],> 100 µM
same,TGI,[16],> 100 µM
same,TGI,[17],> 100 µM
same,TGI,[18],> 100 µM
same,TGI,[19],> 100 µM
same,TGI,[20],> 100 µM
same,TGI,[21],> 100 µM
same,TGI,[22],> 100 µM
same,TGI,[23],> 100 µM
same,TGI,[24],> 100 µM
same,TGI,[25],> 100 µM
same,TGI,[26],> 100 µM
same,TGI,[27],> 100 µM
same,TGI,[28],> 100 µM
same,TGI,[29],> 100 µM
same,TGI,[30],> 100 µM
same,TGI,[31],> 100 µM
same,TGI,[32],> 100 µM
same,TGI,[33],> 100 µM
same,TGI,[34],> 100 µM
same,TGI,[35],> 100 µM
same,TGI,[36],> 100 µM
same,TGI,[38],> 100 µM
same,TGI,[39],> 100 µM
same,TGI,[40],> 100 µM
same,TGI,[41],> 100 µM
same,TGI,[42],> 100 µM
same,TGI,[43],> 100 µM
same,TGI,[44],> 100 µM
same,TGI,[45],> 100 µM
same,TGI,[46],> 100 µM
same,TGI,[48],> 100 µM
same,TGI,[49],> 100 µM
same,TGI,[50],> 100 µM
same,TGI,[51],> 100 µM
same,TGI,[52],> 100 µM
same,TGI,[53],> 100 µM
same,TGI,[54],> 100 µM
same,TGI,[55],> 100 µM
same,TGI,[56],> 100 µM
